Legend:
Format in all cases: cell-based, human
MCF-7 = assay: Cell growth test with or without doxorubicin, MCF-7; details: MCF-7, 1 μM doxorubicin, FIG. 3
Source text: (§1) Human breast cancer cells MCF-7, T47-D, SK-B-3, SK-Br-3, MDA-MB-231 and MDA-MB-468 were purchased from American Type Culture Collection (ATCC). 38 cancer cell samples (Nos. 1 to 38) were excised from 38 breast cancer patients with invasive breast cancer classified in stages I to IIIb according to the breast cancer stage classification. The 38 breast cancer patients are those who after removal of cancer tissue, received chemotherapy consisting essentially of administration of anthracycline anticancer agents. Each human breast cancer cell or cancer tissue was proliferated in Eagle's modified minimum essential medium (GIBCO) (hereinafter referred to merely as medium) containing 10% FCS (Commonwealth Laboratories), 1% (v/v) nonessential amino acid (GIBCO), 2 mM L-glutamine (Sigma Chemical), 100 μg/ml streptomycin (GIBCO), 100 U/ml penicillin (GIBCO) and 0.28 μg/ml fungizone (Squib Pharmaceuticals) in a humidified atmosphere of 5% CO2/95% air at 37° C. 3.0×10^3 human breast cancer cells or cancer tissue were inoculated onto a medium in a 96-well plate and cultured for 1 day in a humidified atmosphere of 5% CO2/95% air at 37° C. Thereafter, the medium was exchanged with a medium with or without 1 μM doxorubicin. Cell proliferation after 0, 24, 48 and 72 hours was measured by using a cell proliferation assay kit (Nippon Chemi-Con Corporation) or Cell Titer-Glo Luminescent Cell Viability assay (Promega) in accordance with its manufacturer's instructions.

MDA-MB-231 = assay: Cell growth test with or without doxorubicin, MDA-MB-231; details: MDA-MB-231, 1 μM doxorubicin, FIGS. 6 and 11
Source text: as §1

T47-D = assay: Cell growth test with or without doxorubicin, T47-D; details: 1 μM doxorubicin, FIG. 4
Source text: as §1, with “Thereafter, the medium was exchanged with a medium with or without 1 μM doxorubicin.” left out

SK-Br-3 = assay: Cell growth test with or without doxorubicin, SK-Br-3; details: SK-Br-3, 1 μM doxorubicin, FIGS. 5 and 10
Source text: as §1, with “Thereafter, the medium was exchanged with a medium with or without 1 μM doxorubicin.” left out

MDA-MB-468 = assay: Cell growth test with or without doxorubicin, MDA-MB-468; details: MDA-MB-468, 1 μM doxorubicin, FIGS. 7 and 9
Source text: as §1, with “Thereafter, the medium was exchanged with a medium with or without 1 μM doxorubicin.” left out

MDA-MB-453 = assay: Cell growth test with or without doxorubicin, MDA-MB-453; details: MDA-MB-453, 1 μM doxorubicin, FIG. 8

## COc1cccc2c1C(=O)c1c(O)c3c(c(O)c1C2=O)C[C@@](O)(C(=O)CO)C[C@@H]3O[C@H]1C[C@H](N)[C@H](O)[C@H](C)O1 [doxorubicin]
MCF-7; 0 to 72 hours
  Cell proliferation as compared with the control: suppressed
  Living cells from 0 hour after administration: hardly changed or are increased
MCF-7
  Induction of apotosis: very low
MDA-MB-231; 0 to 72 hours
  Cell proliferation as compared with the control: suppressed
  Living cells from 0 hour after administration: hardly changed or are increased
MDA-MB-231
  Induction of apotosis: very low
T47-D; 0 to 72 hours
  Living cells from 0 hour after administration: gradually decreased with time
T47-D
  Induction of apotosis: induced, but the effect thereon can be seen to be lower
SK-Br-3; 0 to 72 hours
  Living cells from 0 hour after administration: gradually decreased with time
SK-Br-3; 72 hours
  Induction of apotosis: so high that the living cells hardly remain after 72 hours
MDA-MB-468; 0 to 72 hours
  Living cells from 0 hour after administration: gradually decreased with time
MDA-MB-468
  Induction of apotosis: induced, but the effect thereon can be seen to be lower
MDA-MB-453; 0 to 72 hours
  Living cells from 0 hour after administration: gradually decreased with time
MDA-MB-453; 72 hours
  Induction of apotosis: so high that the living cells hardly remain after 72 hours

— US7718393B2, “Method for determining the efficacy of an anthracycline anticancer agent” (Sysmex Corporation, priority 2006, dated 2010)
